According to US12583818B2 (DAEGU-GYEONGBUK MEDICAL INNOVATION FOUNDATION, priority 2020, dated 2026):
Read-outs that look alike come from different tables or passages of the source.

Legend:
[1] = tested on: MCF7-SP cells (breast cancer stem cells); assay: Sphere cell viability of MCF7-SP cells (Cell-titer Glo); assay type: cell-based
Procedure: (§1) In order to confirm the inhibitory effect of the compound represented by formula 1 according to the present invention on the growth of MCF7, MCF7-SP, A2780 or A2780-SP cells, the following experiment was performed, and the results are shown in Tables 4 and 5 below.
On the other hand, MCF7-SP cells (breast cancer stem cells) were plated in an Ultra-Low Attachment round bottom 96-well plate (corning) at the density of 1,500 viable cells per well, and cultured in cancer stem cell medium. The cancer stem cell medium is composed of the neurobasal medium supplemented with 20 ng/ml of bFGF, 10 ng/ml of EGF, 2.5 […], HEPES, Glutamax and B27.
On the next day of culture, the cells were treated with the compound of Example 71, 76, 80, 84, 92, 99, 100 or 119, followed by culture for 8 days. The medium containing the compound was added thereto once again on the 4th day. Sphere cell viability was evaluated by Cell-titer Glo (Promega, WC, USA), and luciferase activity was detected using a Tecan plate reader (Biocompare, USA).

[2] = tested on: A2780 cells (ovarian cancer cells); assay: Cell viability of A2780 cells (Cell-titer Glo); assay type: cell-based; details: Homo sapiens
Outline: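 A2780 ovarian cancer cells seeded at 3000 viable cells/well in RPMI-1640 with 10% FBS, dosed the next day and grown 3 days. Viability measured by Cell-titer Glo luminescence.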

[3] = tested on: MDA-MB 231 triple negative breast cancer cell line; assay: MDA-MB 231 protein expression inhibition (Western blotting, cycline D1 vs Vinculin); assay type: cell-based; details: Homo sapiens, compound 10 μM, 72 hours, cycline D1 Western blot, read-out: MBA-MB-231 (amount of the protein compared to the DMSO-treated control group)
Procedure: In order to confirm the ability of the compound represented by formula 1 according to the present invention to inhibit the protein expression of MDA-MB 231 triple negative breast cancer cell line, the following experiment was performed, and the results are shown in Table 3 below.
MDA-MB-231 cells were cultured in a 5% CO2 incubator at 37° C. using RPMI medium supplemented with 10% FBS and 1% penicillin/streptomycin.
The cells were washed with PBS once a day, and then replaced with a new medium. The cells grown at the density of at least 90% 1 day before the experiment were detached using trypsin/EDTA, and then plated at the density of 100,000 per well in a 6-well plate.
On the next day of culture, the compound prepared in each example was treated at a concentration of 10 μM, and DMSO was treated at a concentration of 0.1% of the total as the control, followed by incubation for 72 hours. After 72 hours, the cells were washed twice with PBS, collected by scraping, and centrifuged at 13,000 rpm for 3 minutes to remove all the supernatant and only cells were taken.
RIPA buffer (containing 1× protease inhibitor and phosphatase inhibitor) was added to the prepared cells (80 μl/well), and the plate was shaken once every 5 minutes to disrupt the cells for a total of 15 minutes. The disrupted cells were centrifuged at 13,000 rpm for 15 minutes to collect only the supernatant protein. The obtained protein was quantified using a BCA protein quantification kit (Pierece, MA, USA), and a total of 10 μg of the protein was used for Western blotting.
The protein sample was isolated by 10% SDS-PAGE, and transferred to a PVDF membrane. Anti-human cycline D1 antibody (Cell signal) and anti-Vinculin antibody were bound to the protein sample, and the expression of the protein was measured by using an ECL reagent and LAS4000 equipment. The measurement results were quantified and generalized using ImageJ. The results are shown in Table 3 below by dividing the grades A to D according to the amount of the protein compared to the DMSO-treated control group.

[4] = tested on: A2780-SP cells (ovarian cancer stem cells); assay: Sphere cell viability of A2780-SP cells (Cell-titer Glo); assay type: cell-based
Outline: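 A2780-SP ovarian cancer stem cells grown as spheres in ultra-low-attachment wells (1,500 cells/well) in neurobasal stem-cell medium with bFGF, EGF, B27. Compound added the day after plating, re-dosed on day 4, 8-day culture total; viability by CellTiter-Glo luminescence.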

[5] = tested on: MCF7 cells (breast cancer cells); assay: Cell viability of MCF7 cells (Cell-titer Glo); assay type: cell-based; details: Homo sapiens
Procedure: as §1
MCF7 cells (breast cancer cells) were plated in a 96-well plate at the density of 3000 viable cells per well, and cultured in DMEM/High glucose medium supplemented with 10% FBS and 1% penicillin/streptomycin.
On the next day of culture, the cells were treated with the compound of Example 71, 76, 80, 84, 92, 99, 100 or 119, followed by culture for 3 days. Cell viability was evaluated by Cell-titer Glo (Promega, WC, USA), and luciferase activity was detected using a Tecan plate reader (Biocompare, USA).

Pin1 = target: T1, Pin1 (Homo sapiens, UniProt Q13526); assay: Evaluation of Pin1 enzyme inhibitory activity (Sensolyte Green Pin1 assay kit); assay type: biochemical
T1 construct: purchased Anaspec
Outline: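 Compounds were tested at four working concentrations (100, 10, 1, 0.1 μM), mixed with Pin1 (50 μg/ml stock dilution), developer and substrate (1 μM as prepared). Fluorescence at 490/520 nm was recorded after 2 h in the dark at room temperature. Results were grouped into grades A–D by inhibiting concentration.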

[6] = 192 h, sphere cell viability, culture for 8 days, read-out: MCF7-SP
[7] = text summary of Table 4, read-out: MCF7-SP cell concentration
[8] = 72 h, cell viability, culture for 3 days, read-out: A2780
[9] = A2780, Table 5, read-out: A2780 cell concentration
[10] = 192 h, sphere cell viability, culture for 8 days, read-out: A2780-SP
[11] = Table 5, read-out: the concentration (second list of b710, cell line not named; matches A2780-SP column)
[12] = 72 h, cell viability, culture for 3 days, read-out: MCF7
[13] = MCF7, text summary of Table 4, read-out: MCF7 cell concentration
[14] = Table 2, read-out: concentration at which Pin1 inhibitory activity was exhibited
[15] = concentration at which the Pin1 enzyme activity is inhibited, 2 hours at room temperature, fluorescence 490 nm/520 nm, read-out: Pin 1 inhibition

T1 sequence (Q13526 whole entry): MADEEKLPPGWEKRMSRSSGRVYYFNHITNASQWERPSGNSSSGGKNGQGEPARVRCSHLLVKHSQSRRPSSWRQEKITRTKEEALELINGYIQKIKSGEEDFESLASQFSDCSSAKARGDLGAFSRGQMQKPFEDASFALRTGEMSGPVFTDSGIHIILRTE

| IC50 [1, 6] | IC50 [1, 7] | IC50 [2, 8] | IC50 [2, 9] | IC50 [4, 10] | IC50 [4, 11] | IC50 [5, 12] | IC50 [5, 13] | IC50 (Pin1; [14]) | IC50 (Pin1; [15]) | SMILES | activity at 10 µM [3] |
| --- | --- | --- | --- | --- | --- | --- | --- | --- | --- | --- | --- |
| 1000 to 10000 nM | < 10000 nM | 1000 to 10000 nM | < 10000 nM | < 1000 nM | < 1000 nM | 1000 to 10000 nM | < 10000 nM | < 1000 nM | < 1000 nM | CN1CCCN(CCCOc2ccc(S(=O)(=O)NCCCc3c[nH]c4ccc(Cl)cc34)cc2)CC1 [Example 83, N-(3-(5-chloro-1H-indol-3-yl)propyl)-4-(3-(4-methyl-1,4-diazepan-1-yl)propoxy)benzenesulfonamide] | 0 to 35% |
| 1000 to 10000 nM | < 10000 nM | > 10000 nM | – | < 1000 nM | < 1000 nM | 1000 to 10000 nM | < 10000 nM | < 1000 nM | < 1000 nM | O=S(=O)(NCCCc1c[nH]c2ccc(Cl)cc12)c1ccc(CCCCN2CCNCC2)cc1 [Example 91, N-(3-(5-chloro-1H-indol-3-yl)propyl)-4-(4-(piperazin-1-yl)butyl)benzenesulfonamide] | 0 to 35% |
| > 10000 nM | – | 1000 to 10000 nM | < 10000 nM | 1000 to 10000 nM | – | > 10000 nM | – | < 1000 nM | < 1000 nM | CN1CCN(CCCNc2ccc(S(=O)(=O)NCCCc3c[nH]c4ccc(Cl)cc34)cc2)CC1 [Example 98, N-(3-(5-chloro-1H-indole-3-yl)propyl)-4-((3-(4-methylpiperazine-1-yl)propyl)amino)benzenesulfonamide] | 0 to 35% |
| 1000 to 10000 nM | < 10000 nM | 1000 to 10000 nM | < 10000 nM | < 1000 nM | < 1000 nM | 1000 to 10000 nM | < 10000 nM | < 1000 nM | < 1000 nM | O=S(=O)(NCCCc1c[nH]c2ccc(Cl)cc12)c1ccc(CCCCC2CCNCC2)cc1 [Example 99, N-(3-(5-chloro-1H-indole-3-yl)propyl)-4-(4-(piperidine-4-yl)butyl)benzenesulfonamide] | 0 to 35% |
| 1000 to 10000 nM | < 10000 nM | > 10000 nM | – | < 1000 nM | < 1000 nM | 1000 to 10000 nM | < 10000 nM | < 1000 nM | < 1000 nM | CN1CCN(c2cccc(Oc3ccc(S(=O)(=O)NCCCc4c[nH]c5ccc(Cl)cc45)cc3)c2)CC1 [Example 118, N-(3-(5-chloro-1H-indole-3-yl)propyl)-4-(3-(4-methylpiperazine-1-yl)phenoxy)benzenesulfonamide] | 50 to 70% |
